Measurements from US20230110113A1, “FGFR TYROSINE KINASE INHIBITORS FOR THE TREATMENT OF HIGH-RISK NON-MUSCLE INVASIVE BLADDER CANCER” (Janssen Pharmaceutica NV, priority 2020, published 2023).

How the values were obtained:
[1] = test system: UM-UC-1 bladder cancer cell line (WT); conditions: MTT
[2] = test system: EJ28 bladder cancer cell line (FGFR status unknown); conditions: EJ28, FGFR3 status unknown
[3] = test system: T24 bladder cancer cell line (WT); conditions: T24, FGFR3 WT

Question: What does the source list for COc1cc(OC)cc(N(CCNC(C)C)c2ccc3ncc(-c4cnn(C)c4)nc3c2)c1 [erdafitinib, N-(3,5-dimethoxyphenyl)-N′-(1-methylethyl)-N-[3-(1-methyl-1H-pyrazol-4-yl)quinoxalin-6-yl]ethane-1,2-diamine]?
Answer: Cell viability max effect [1]: 80%; Sensitivity of cell line to erdafitinib (in words) [2]: not sensitive; Sensitivity of cell line to erdafitinib (in words) [3]: not sensitive
